In the NIST ThermoML archive (doi:10.1021/je900596d):

Conditions: Vibrating tube method

FC(F)=C(F)C(F)(F)F [hexafluoropropene]
Conditions | mass density [kg/m3]
303.28 K, 499 kPa, Fluid (supercritical or subcritical phases) | 33.24
303.28 K, 504.3 kPa, Fluid (supercritical or subcritical phases) | 33.56
303.28 K, 509.6 kPa, Fluid (supercritical or subcritical phases) | 33.97
303.28 K, 514.9 kPa, Fluid (supercritical or subcritical phases) | 34.46
303.28 K, 525.4 kPa, Fluid (supercritical or subcritical phases) | 35.23
303.28 K, 530.6 kPa, Fluid (supercritical or subcritical phases) | 35.69
303.28 K, 535.9 kPa, Fluid (supercritical or subcritical phases) | 36.01
303.28 K, 541.1 kPa, Fluid (supercritical or subcritical phases) | 36.49
303.28 K, 546.3 kPa, Fluid (supercritical or subcritical phases) | 36.92
303.28 K, 551.5 kPa, Fluid (supercritical or subcritical phases) | 37.29
303.28 K, 556.7 kPa, Fluid (supercritical or subcritical phases) | 37.7
303.28 K, 572.3 kPa, Fluid (supercritical or subcritical phases) | 38.97
303.28 K, 577.4 kPa, Fluid (supercritical or subcritical phases) | 39.31
303.28 K, 582.5 kPa, Fluid (supercritical or subcritical phases) | 39.71
303.28 K, 587.5 kPa, Fluid (supercritical or subcritical phases) | 40.14
303.28 K, 597.7 kPa, Fluid (supercritical or subcritical phases) | 41.02
303.28 K, 605.4 kPa, Fluid (supercritical or subcritical phases) | 41.64
303.28 K, 610.5 kPa, Fluid (supercritical or subcritical phases) | 42.03
303.28 K, 615.6 kPa, Fluid (supercritical or subcritical phases) | 42.45
303.28 K, 625.6 kPa, Fluid (supercritical or subcritical phases) | 43.25
303.28 K, 630.6 kPa, Fluid (supercritical or subcritical phases) | 43.67
303.28 K, 635.6 kPa, Fluid (supercritical or subcritical phases) | 44.16
303.28 K, 640.7 kPa, Fluid (supercritical or subcritical phases) | 44.51
303.28 K, 650.7 kPa, Fluid (supercritical or subcritical phases) | 45.35
303.28 K, 655.6 kPa, Fluid (supercritical or subcritical phases) | 45.82
303.28 K, 660.6 kPa, Fluid (supercritical or subcritical phases) | 46.19
303.28 K, 665.5 kPa, Fluid (supercritical or subcritical phases) | 46.57
303.28 K, 670.5 kPa, Fluid (supercritical or subcritical phases) | 47.07
303.28 K, 675.4 kPa, Fluid (supercritical or subcritical phases) | 47.49
303.28 K, 680.3 kPa, Fluid (supercritical or subcritical phases) | 47.87
303.28 K, 685.2 kPa, Fluid (supercritical or subcritical phases) | 48.24
303.28 K, 690 kPa, Fluid (supercritical or subcritical phases) | 48.67
303.28 K, 694.8 kPa, Fluid (supercritical or subcritical phases) | 49.19
303.28 K, 709.3 kPa, Fluid (supercritical or subcritical phases) | 50.39
303.28 K, 714.1 kPa, Fluid (supercritical or subcritical phases) | 50.86
303.28 K, 718.9 kPa, Fluid (supercritical or subcritical phases) | 51.33
303.28 K, 723.7 kPa, Fluid (supercritical or subcritical phases) | 51.66
303.28 K, 728.6 kPa, Fluid (supercritical or subcritical phases) | 52.22
303.28 K, 734.4 kPa, Fluid (supercritical or subcritical phases) | 52.63
303.28 K, 746.1 kPa, Fluid (supercritical or subcritical phases) | 53.68
303.28 K, 750.9 kPa, Fluid (supercritical or subcritical phases) | 54.09
303.28 K, 756.7 kPa, Fluid (supercritical or subcritical phases) | 54.65
303.28 K, 768.4 kPa, Fluid (supercritical or subcritical phases) | 55.74
303.28 K, 774.1 kPa, Fluid (supercritical or subcritical phases) | 56.3
303.28 K, 779.9 kPa, Fluid (supercritical or subcritical phases) | 56.84
303.28 K, 785.6 kPa, Fluid (supercritical or subcritical phases) | 57.36
303.28 K, 791.2 kPa, Fluid (supercritical or subcritical phases) | 57.85
303.28 K, 796.9 kPa, Fluid (supercritical or subcritical phases) | 58.41
303.28 K, 802.6 kPa, Fluid (supercritical or subcritical phases) | 58.95
303.28 K, 808.2 kPa, Fluid (supercritical or subcritical phases) | 59.58
303.28 K, 813.9 kPa, Fluid (supercritical or subcritical phases) | 60.04
303.28 K, 823.6 kPa, Fluid (supercritical or subcritical phases) | 61.02
303.28 K, 828.8 kPa, Fluid (supercritical or subcritical phases) | 61.46
303.28 K, 838 kPa, Fluid (supercritical or subcritical phases) | 62.51
303.28 K, 841.4 kPa, Fluid (supercritical or subcritical phases) | 62.82
303.28 K, 842 kPa, Fluid (supercritical or subcritical phases) | 62.87
303.28 K, 842.4 kPa, Fluid (supercritical or subcritical phases) | 62.98
303.28 K, 843.8 kPa, Fluid (supercritical or subcritical phases) | 63.1
303.28 K, 844.7 kPa, Fluid (supercritical or subcritical phases) | 63.37
303.28 K, 845.6 kPa, Fluid (supercritical or subcritical phases) | 63.62
303.28 K, 846.3 kPa, Fluid (supercritical or subcritical phases) | 63.97
303.28 K, 846.8 kPa, Fluid (supercritical or subcritical phases) | 64.22
303.28 K, 847.7 kPa, Fluid (supercritical or subcritical phases) | 64.87
303.28 K, 848.2 kPa, Fluid (supercritical or subcritical phases) | 65.17
303.36 K, 851.7 kPa, Liquid | 1288.08
303.36 K, 854.5 kPa, Liquid | 1288.17
303.36 K, 856.9 kPa, Liquid | 1288.04
303.36 K, 858.9 kPa, Liquid | 1288.19
303.36 K, 870 kPa, Liquid | 1288.22
303.36 K, 873.5 kPa, Liquid | 1288.36
303.36 K, 880.9 kPa, Liquid | 1288.43
303.36 K, 885.8 kPa, Liquid | 1288.43
303.36 K, 887.7 kPa, Liquid | 1288.47
303.36 K, 903 kPa, Liquid | 1288.59
303.36 K, 908.2 kPa, Liquid | 1288.61
303.36 K, 911.2 kPa, Liquid | 1288.78
303.36 K, 918.3 kPa, Liquid | 1288.76
303.36 K, 927 kPa, Liquid | 1288.93
303.36 K, 935.5 kPa, Liquid | 1288.99
303.36 K, 940.8 kPa, Liquid | 1288.91
303.36 K, 943.4 kPa, Liquid | 1289.1
303.36 K, 946.1 kPa, Liquid | 1289.23
303.36 K, 954.6 kPa, Liquid | 1289.18
303.36 K, 959.8 kPa, Liquid | 1289.24
303.36 K, 965.5 kPa, Liquid | 1289.39
303.36 K, 974 kPa, Liquid | 1289.46
303.36 K, 983.2 kPa, Liquid | 1289.54
303.36 K, 988.8 kPa, Liquid | 1289.67
303.36 K, 995.6 kPa, Liquid | 1289.74
303.36 K, 1001.4 kPa, Liquid | 1289.81
303.36 K, 1006.1 kPa, Liquid | 1289.98
303.36 K, 1016.7 kPa, Liquid | 1289.99
303.36 K, 1021.3 kPa, Liquid | 1290
303.36 K, 1025.8 kPa, Liquid | 1290.01
303.36 K, 1030.5 kPa, Liquid | 1290.08
303.36 K, 1045.7 kPa, Liquid | 1290.29
303.36 K, 1063.4 kPa, Liquid | 1290.5
303.36 K, 1068.6 kPa, Liquid | 1290.58
303.36 K, 1082.5 kPa, Liquid | 1290.71
303.36 K, 1095.4 kPa, Liquid | 1290.76
303.36 K, 1106.3 kPa, Liquid | 1291.06
303.36 K, 1118.1 kPa, Liquid | 1291.22
303.36 K, 1152.1 kPa, Liquid | 1291.56
303.36 K, 1163 kPa, Liquid | 1291.61
303.36 K, 1174.7 kPa, Liquid | 1291.89
303.36 K, 1188.2 kPa, Liquid | 1292.04
303.36 K, 1203.3 kPa, Liquid | 1292.26
303.36 K, 1216 kPa, Liquid | 1292.23
303.36 K, 1235 kPa, Liquid | 1292.43
303.36 K, 1249 kPa, Liquid | 1292.78
303.36 K, 1261.3 kPa, Liquid | 1292.76
303.36 K, 1289 kPa, Liquid | 1293.23
303.36 K, 1305.6 kPa, Liquid | 1293.27
303.36 K, 1340.2 kPa, Liquid | 1293.72
303.36 K, 1361.8 kPa, Liquid | 1293.94
303.36 K, 1383.4 kPa, Liquid | 1294.19
303.36 K, 1404.6 kPa, Liquid | 1294.41
303.36 K, 1448.9 kPa, Liquid | 1294.92
303.36 K, 1483.7 kPa, Liquid | 1295.38
303.36 K, 1495.8 kPa, Liquid | 1295.69
303.36 K, 1517.4 kPa, Liquid | 1295.82
303.36 K, 1540.3 kPa, Liquid | 1296.17
303.36 K, 1561.5 kPa, Liquid | 1296.23
303.36 K, 1582.1 kPa, Liquid | 1296.56
303.36 K, 1615.7 kPa, Liquid | 1296.92
303.36 K, 1637.2 kPa, Liquid | 1297.09
303.36 K, 1659.1 kPa, Liquid | 1297.43
303.36 K, 1680.6 kPa, Liquid | 1297.48
303.36 K, 1726.5 kPa, Liquid | 1298.26
303.36 K, 1771 kPa, Liquid | 1298.55
303.36 K, 1793.6 kPa, Liquid | 1298.76
303.36 K, 1815.1 kPa, Liquid | 1299.1
303.36 K, 1837.5 kPa, Liquid | 1299.36
303.36 K, 1861.7 kPa, Liquid | 1299.58
